The assay deals with T1, NcFADS (Neurospora crassa, UniProt Q7SCU7).
T1 sequence (Q7SCU7 49-318): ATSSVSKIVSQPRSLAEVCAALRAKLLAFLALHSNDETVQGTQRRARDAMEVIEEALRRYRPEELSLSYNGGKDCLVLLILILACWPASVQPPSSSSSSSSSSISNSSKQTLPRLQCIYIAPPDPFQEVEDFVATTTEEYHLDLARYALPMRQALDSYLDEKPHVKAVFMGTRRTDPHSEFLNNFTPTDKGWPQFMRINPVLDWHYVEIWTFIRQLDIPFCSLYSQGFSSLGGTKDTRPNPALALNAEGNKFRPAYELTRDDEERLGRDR
The assay can be described thus: isothermal titration calorimetry. The assay is classed as binding. A general note: Isothermal titration calorimetry measures the heat released or taken up as one component is titrated into another.

As to `Cc1cc2nc3c(=O)[nH]c(=O)nc-3n(C[C@H](O)[C@H](O)[C@H](O)COP(=O)(O)O)c2cc1C` [FMN], the dissociation constant Kd was 20.8 µM. In the case of `Nc1ncnc2c1ncn2[C@@H]1O[C@H](COP(=O)(O)OP(=O)(O)OP(=O)(O)O)[C@@H](O)[C@H]1O` [MgATP^2−] it was 16.6 µM.

For orientation: Kd means the equilibrium constant for the complex coming apart. A higher Kd goes with weaker binding.
